How the values were obtained:
mouse kindling model = conditions: anti-seizure effect (ED50) in mouse kindling model versus neurotoxic effect (TD50) in rotarod test; compared with a control compound; cited from earlier work
[1] = tested on: Parkinson's disease model cynomolgus monkeys (MPTP); test: Test Example 1: NDSs after administration of Compound (I) alone in MPTP Parkinson's disease model monkeys; type: in vivo; design: key to Subgroup 2: Specific motor functions score: specific motor functions subscore, range 0-21
Procedure: The therapeutic effect of Compound (I) on Parkinson's disease was examined using Parkinson's disease model animals which are produced by administering MPTP (1-methyl-4-phenyl-1,2,3,6-tetrahydropyridine).
MPTP was administered to male cynomolgus monkeys at the age of 4 to 5 to make Parkinson's disease model cynomolgus monkeys. MPTP was additionally administered to animals with neurologic deficit scores (Neurological deficit scores: NDSs, Schneider et al., “Development of levodopa-induced dyskinesias in parkinsonian monkeys may depend upon rate of symptom onset and/or duration of symptoms”, Brain Res., 2003, 990:38-44.) of less than 25.
Eight Parkinson's disease model cynomolgus monkeys were randomized into 5 groups of approximately equal mean and variance in terms of Parkinson behavior rating (Tremor score) and body weight. On subsequent cycle 2, cycle 3, cycle 4 and cycle 5, the animals were crossed over to receive the other treatments. A wash out period of one week or more was set between each cycle.
By the end of the study, each animal had received all the five treatments. Istradefylline is an adenosine A2A receptor antagonist approved as a drug for improving a wearing off phenomenon in Parkinson's disease being treated with a levodopa-containing preparation in the United States of America and Japan (Patent Literature 4). As a vehicle, an aqueous solution containing 0.43% (w/v) methyl cellulose 400, 10% (v/v) dimethyl sulfoxide (DMSO), and 4.5% (w/v) Cremophor (R) was used.
Before the administration, and 1 hr., 4 hrs., and 24 hrs. after the administration of the test substances, the NDSs of the monkeys were evaluated. The evaluation items are as follows. The behavior evaluation was performed in a blinded manner. The NDSs of the groups were compared using Steel's test. The p-values of less than 0.05 were considered to be statistically significant.
Subgroup 1: generalized behaviors (0-32) • 1.1a Appetite • 0: Normal • 1: Up to 30% food left • 2: Up to 65% food left • 3: Greater than 65% food left • 1.1b Response to offered food • 0: Responds to offered food • 1: Inconsistent response to offered food • 2: Little to no interest in offered food • 1.2 Overall activity • 0: Normal • 1: Mild hypokinesia; decrease in spontaneous movement • 2: Moderate hypokinesia; sparse spontaneous movement • 3: Severe hypokinesia; no spontaneous movement; tends to remain in one place • 1.3 Appearance • 0: Normal • 1: Mild but noticeable decrease in self-maintenance • 2: Moderate decrease in self-maintenance • 3: Severe lack of self-maintenance • 1.4 Posture • 0: Normal • 1: Minor flexing or stooping • 2: Moderate flexing or stooping; head and upper body almost parallel to floor of cage • 3: Severe flexing or stooping; head lowered to feet • 1.5 Balance • 0: Normal • 1: Mild loss on arising or movement • 2: Moderate loss on arising or movement; occasionally falls or supports self to keep from falling • 3: Severe loss of balance; falls • 1.6 Climbing • 0: Climbing observed with no delays in initiation/execution • 1: Mild deficit in ability to climb and support weight • 2: Moderate deficit in ability to climb and support weight; tends to ‘slide down’ • 3: Absence of any climbing behavior • 1.7 Tremor • 0: Absent • 1: Slight and intermittent • 2: Slight and persistent or moderate and intermittent • 3: Moderate/severe and persistent • 1.8 Freezing during movement • 0: Absent • 1: Occasional freezing for brief periods • 2: Occasional freezing for prolonged periods or frequent freezing for brief periods • 3: Prolonged and frequent freezing • 1.9 Facial expression • 0: Normal • 1: Mild hypomimia • 2: Moderate hypomimia • 3: Severe, masked fixed faces • 1.10 Defense reaction • 0: Normal • 1: Mild, noticeable reduction in reaction or slowed reaction, but can be provoked to react • 2: Moderate reduction in reaction; can produce facial display but not body reaction • 3: Little to no response
Subgroup 2: Specific Motor Functions (0-21)

various animal models = conditions: cited from earlier work
[2] = Compound (I) high dose 50 mg/kg (G4), 1 hr. after administration
[3] = Compound (I) high dose 50 mg/kg (G4), 4 hrs. after administration
[4] = Compound (I) high dose 50 mg/kg (G4), 24 hrs. after administration
[5] = Compound (I) high dose 50 mg/kg (G4), Pre (before administration)
[6] = Compound (I) low dose 5 mg/kg (G2), 1 hr. after administration
[7] = Compound (I) low dose 5 mg/kg (G2), 4 hrs. after administration
[8] = Compound (I) low dose 5 mg/kg (G2), 24 hrs. after administration
[9] = Compound (I) low dose 5 mg/kg (G2), Pre (before administration)
[10] = Compound (I) middle dose 15 mg/kg (G3), 1 hr. after administration
[11] = Compound (I) middle dose 15 mg/kg (G3), 4 hrs. after administration
[12] = Compound (I) middle dose 15 mg/kg (G3), 24 hrs. after administration
[13] = Compound (I) middle dose 15 mg/kg (G3), Pre (before administration)

NS(=O)(=O)N[C@H]1c2c(F)cc(F)cc2CC1(F)F [Compound (I), N-[(1S)-2,2,5,7-tetrafluoro-2,3-dihydro-1H-inden-1-yl]sulfamide]
therapeutic index (TD50/ED50) (mouse kindling model): higher
Subgroup 1: GENERALIZED BEHAVIORS score [1, 2]: 17.1 ± 0.8
Subgroup 2: Specific motor functions score [1, 2]: 12.0 ± 0.5
Total score of NDSs [1, 2]: 29.1 ± 1.3
Tremor score [1, 2]: 1.6 ± 0.2
Subgroup 1: GENERALIZED BEHAVIORS score [1, 3]: 14.8 ± 1.0
Subgroup 2: Specific motor functions score [1, 3]: 9.9 ± 0.5
Total score of NDSs [1, 3]: 24.6 ± 1.3
Tremor score [1, 3]: 1.1 ± 0.1
Subgroup 1: GENERALIZED BEHAVIORS score [1, 4]: 17.3 ± 1.1
Subgroup 2: Specific motor functions score [1, 4]: 12.0 ± 0.6
Total score of NDSs [1, 4]: 29.3 ± 1.6
Tremor score [1, 4]: 1.4 ± 0.2
Subgroup 1: GENERALIZED BEHAVIORS score [1, 5]: 19.0 ± 0.8
Subgroup 2: Specific motor functions score [1, 5]: 13.5 ± 0.4
Total score of NDSs [1, 5]: 32.5 ± 1.1
Tremor score [1, 5]: 2.1 ± 0.1
Subgroup 1: GENERALIZED BEHAVIORS score [1, 6]: 16.1 ± 0.9
Subgroup 2: Specific motor functions score [1, 6]: 11.5 ± 0.6
Total score of NDSs [1, 6]: 27.6 ± 1.5
Tremor score [1, 6]: 1.8 ± 0.2
Subgroup 1: GENERALIZED BEHAVIORS score [1, 7]: 16.0 ± 0.7
Subgroup 2: Specific motor functions score [1, 7]: 12.5 ± 0.3
Total score of NDSs [1, 7]: 28.5 ± 1.0
Tremor score [1, 7]: 1.8 ± 0.2
Subgroup 1: GENERALIZED BEHAVIORS score [1, 8]: 17.1 ± 0.8
Subgroup 2: Specific motor functions score [1, 8]: 11.9 ± 0.4
Total score of NDSs [1, 8]: 29.0 ± 1.0
Tremor score [1, 8]: 2.1 ± 0.1
Subgroup 1: GENERALIZED BEHAVIORS score [1, 9]: 17.4 ± 0.8
Subgroup 2: Specific motor functions score [1, 9]: 13.3 ± 0.5
Total score of NDSs [1, 9]: 30.6 ± 1.1
Tremor score [1, 9]: 2.0 ± 0.0
Subgroup 1: GENERALIZED BEHAVIORS score [1, 10]: 15.5 ± 1.0
Subgroup 2: Specific motor functions score [1, 10]: 12.3 ± 0.5
Total score of NDSs [1, 10]: 27.8 ± 1.5
Tremor score [1, 10]: 1.6 ± 0.2
Subgroup 1: GENERALIZED BEHAVIORS score [1, 11]: 15.0 ± 0.8
Subgroup 2: Specific motor functions score [1, 11]: 11.5 ± 0.4
Total score of NDSs [1, 11]: 26.5 ± 1.0
Tremor score [1, 11]: 1.6 ± 0.2
Subgroup 1: GENERALIZED BEHAVIORS score [1, 12]: 16.8 ± 0.9
Subgroup 2: Specific motor functions score [1, 12]: 12.8 ± 0.3
Total score of NDSs [1, 12]: 29.5 ± 1.1
Tremor score [1, 12]: 1.8 ± 0.2
Subgroup 1: GENERALIZED BEHAVIORS score [1, 13]: 17.3 ± 0.6
Subgroup 2: Specific motor functions score [1, 13]: 12.9 ± 0.4
Total score of NDSs [1, 13]: 30.1 ± 0.9
Tremor score [1, 13]: 2.0 ± 0.0
analgesic effect (various animal models): exhibit an analgesic effect

Reference: patent publication US20250195457A1, “PHARMACEUTICAL COMPOSITION FOR TREATMENT OF PARKINSON'S DISEASE” (Eisai R&D Management Co., Ltd., priority 2022, published 2025)
